“Also recorded” adds a separate entry of the source.
Key:
[1] = Conversion of compounds in human plasma; assay type: in vitro ADME; conditions: 1 μM test compound, 37° C., 0-6 hr; nd: not detected
Experimental: Frozen human plasma was thawed and then centrifuged at 3200×g for 5 min to remove debris. The pH value of the supernatant was then measured and adjusted to 7.4±0.1 by adding 1% phosphoric acid or 1 N sodium hydroxide. 2 μL of dosing solution (50 μM for test compounds and 100 μM for positive control (propantheline bromide)) was mixed with 98 μL of blank plasma to achieve 1 μM test compound and 2 μM positive control of final concentration. The mixture was incubated, and samples were withdrawn from the incubations at the pre-determined time points of 0, 0.5, 1, 2, 4 and 6 hr (in duplicate) at 37° C. in water bath. At each corresponding time point 10 μL inhibitor and 20 μL ascorbic acid and 2 μL formic acid (20%) are added, and then added 400 μL of “stop solution” (200 ng/mL tolbutamide plus 200 ng/mL labetalol in 50% ACN/MeOH) to precipitate protein. The substance was mixed thoroughly and thereafter Centrifugated at 4,000 rpm for 20 minutes. Then an aliquot of supernatant (50 μL) was transferred from each well to a sample plate and mixed with 100 μL ultrapure water. The plate was shaked at 800 rpm for about 10 minutes before submitting to LC-MS/MS analysis.
(§1) Mass spectrometer (LC-MS/MS) Shimadzu LC 20-AD Shimadzu UHPLC API 4000. Analytical column ACQUITY UPLC® BEH Phenyl 1.7 μm 2.1×50 mm. Mobile phase A: 0.1% Formic Acid in Water. Mobile phase B: 0.1% Formic Acid in Acetonitrile. […] Flow rate 0.7 mL/min.

human hepatocytes = assay: Conversion of compounds in human hepatocytes; assay type: in vitro ADME; conditions: 1 μM compound, 37° C.; nd: not detected
Experimental: Incubations were conducted in 96-well plates at 1 μM compound concentration in duplicate. The hepatocyte cell concentration was 0.5×10^6 cells/mL used for final incubation at 37° C. in an incubator of 5% CO2 95% relative humidity. The medium control samples were included at 0 and 60 minutes in the absence of cells. The total organic concentration was 1% (DMSO 0.1%) in the final incubation. The controls, (7-ethoxycoumarin and 7-hydroxycoumarin) was incubated parallel at 3 μM. 2 μL of dosing solution (50 μM for test compounds and 100 μM for positive control) was mixed with 98 μL of 100 mM PBS to achieve 1 μM test compound and 2 μM positive control of final concentration. The mixture was incubated, and samples were withdrawn from the incubations at pre-determined time points of 0, 0.5, 1, 2, 4 and 6 hr (in duplicate) at 37° C. in water bath. To each sample, 10 μL inhibitor and 20 μL ascorbic acid and 2 μL formic acid (20%) were added followed by 400 μL of stop solution (200 ng/mL tolbutamide plus 200 ng/mL labetalol in 50% ACN/MeOH). The substance was mixed thoroughly and thereafter centrifuged at 4,000 rpm for 20 minutes. An aliquot of supernatant (50 μL) from each well were transferred to a sample plate and mixed with 100 μL ultrapure water. The plate was shaked at 800 rpm for about 10 minutes before submitting to LC-MS/MS analysis.
as §1

[2] = PK experiments in rats, plasma compound (I) after oral dosing; assay type: in vivo, Han Wistar rats; conditions: oral dosing, rats
Experimental: Plasma was placed on water-ice following collection. Final storage at approximately −70° C.
Mobile phase B: Acetonitrile. […] Flow rate 0.5 mL/min.
The rats had unrestricted access to the diet.
Mobile phase B: Acetonitrile+0.2% formic acid. […] Flow rate 0.3 mL/min.
The rats received a standard laboratory diet Teklad 2014C. The rats had unrestricted access to the diet.

human 5-HT2B receptor = human 5-HT2B receptor (Homo sapiens (Human), UniProt P41595); assay: 5-HT2B agonist activity assay (IP1 production, HTRF); assay type: cell-based; conditions: read-out: 5-HT2B agonist activity, percent of control response
Experimental: Evaluation of the agonist activity of compounds (I), (Ia), (Ib), (Ic), (Ia-iab), compound (2), compound (9), compound (15), compound (27), A2, A3, and A7 at the human 5-HT2B receptor was performed by Eurofins/Cerep (France) measuring the compound effects on inositol monophosphate (IP1) production using the HTRF detection method. Briefly, the human 5-HT2B receptor was expressed in transfected CHO cells. The cells were suspended in a buffer containing 10 mM Hepes/NaOH (pH 7.4), 4.2 mM KCl, 146 mM NaCl, 1 mM CaCl2, 0.5 mM MgCl2, 5.5 mM glucose and 50 mM LiCl, then distributed in microplates at a density of 4100 cells/well and incubated for 30 minutes at 37° C. in the presence of buffer (basal control), test compound or reference agonist. For stimulated control measurement, separate assay wells contained 1 μM 5-HT. Following incubation, the cells were lysed and the fluorescence acceptor (fluorophen D2-labeled IP1) and fluorescence donor (anti-IP1 antibody labeled with europium cryptate) were added. After 60 minutes at room temperature, the fluorescence transfer was measured at lambda(Ex) 337 nm and lambda(Em) 620 and 665 nm using a microplate reader (Rubystar, BMG). The IP1 concentration was determined by dividing the signal measured at 665 nm by that measured at 620 nm (ratio). The results were expressed as a percent of the control response to 1 μM 5-HT. The standard reference agonist was 5-HT, which was tested in each experiment at several concentrations to generate a concentration-response curve from which its EC50 value is calculated as described above for dopamine functional assays.

male CD rats = assay: Rat locomotor activity (hyperactivity) assay, open field; assay type: in vivo; conditions: (Id-ia) 10 to 300 μg/kg p.o.; apomorphine 3 mg/kg s.c.; pramipexole 0.3 mg/kg s.c.
Experimental: In total, 206 male CD rats (Charles River, Germany) weighing 200-250 grams (165-190 grams upon arrival) were used in the study. Animals were housed at a standard temperature (22±1° C.) and in a light-controlled environment (lights on from 7 am to 8 pm) with ad libitum access to food and water. The experiment described below was performed in accordance with the standard operating procedures of Charles River Discovery Research Services Finland Ltd. and in accordance with the national Animal Experiment Board of Finland (Elainkoelautakunta, ELLA) authority on animal testing.
The test device is a square Plexiglass-arena (measuring 40×40×40 cm), in which the movement paths of the rats are recorded by an activity monitor (Med. Associates Inc.). Before the test period is initiated, rats are habituated to their test cage for 60 minutes. Upon completion of habituation, animals were treated with either compound or vehicle and placed back into the open field apparatus. The main test parameter measured is ambulatory distance (recorded in 5 minute segments). Overall time of measurement after receiving initial treatment was 360 minutes. Total follow up period in the study was 420 minutes, including 60 minutes of habituation.
Blood samples were taken and processed and analyzed as described under PK experiments in rats in Example 3.

human 5-HT2B receptor, sequence (P41595 whole entry): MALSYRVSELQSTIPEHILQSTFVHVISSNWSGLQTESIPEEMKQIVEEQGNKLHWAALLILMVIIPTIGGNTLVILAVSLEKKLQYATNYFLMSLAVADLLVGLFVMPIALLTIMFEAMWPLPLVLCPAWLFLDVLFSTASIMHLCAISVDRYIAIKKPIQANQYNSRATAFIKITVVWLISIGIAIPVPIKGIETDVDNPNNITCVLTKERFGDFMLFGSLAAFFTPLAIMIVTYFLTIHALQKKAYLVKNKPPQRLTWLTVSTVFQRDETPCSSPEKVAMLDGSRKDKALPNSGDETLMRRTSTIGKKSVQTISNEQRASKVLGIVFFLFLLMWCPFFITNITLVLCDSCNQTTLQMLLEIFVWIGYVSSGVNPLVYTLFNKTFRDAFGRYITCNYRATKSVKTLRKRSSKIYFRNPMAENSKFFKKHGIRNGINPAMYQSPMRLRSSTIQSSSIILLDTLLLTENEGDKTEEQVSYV

SMILES	Observed metabolite, Incubation in human plasma [1]	Observed metabolite, Incubation in human hepatocytes (human hepatocytes)	Observed metabolite, In vivo PK study after oral dosing (rats) [2]	activity at 10 µM (human 5-HT2B receptor)	effect on locomotor activity (male CD rats)
CCCN1CCC[C@@H]2Cc3c(ccc(O[C@@H]4O[C@H](C(=O)O)[C@@H](O)[C@H](O)[C@H]4O)c3O[C@@H]3O[C@H](C(=O)O)[C@@H](O)[C@H](O)[C@H]3O)C[C@H]21 [(Id-iab), (2S,2′S,3S,3′S,4S,4′S,5R,5′R,6S,6′S)-6,6′-(((4aR,10aR)-1-propyl-1,2,3,4,4a,5,10,10a-octahydrobenzo[g]quinoline-6,7-diyl)bis(oxy))bis(3,4,5-trihydroxytetrahydro-2H-pyran-2-carboxylic acid)]	Compound (I)	Compound (I)	Compound (I)	–	–
CCCN1CCC[C@@H]2Cc3c(ccc(OCc4ccccc4)c3O[C@@H]3O[C@H](C(=O)OC)[C@@H](OC(C)=O)[C@H](OC(C)=O)[C@H]3OC(C)=O)C[C@H]21 [Compound (1), (2S,3R,4S,5S,6S)-2-(((4aR,10aR)-7-(benzyloxy)-1-propyl-1,2,3,4,4a,5,10,10a-octahydrobenzo[g]quinolin-6-yl)oxy)-6-(methoxycarbonyl)tetrahydro-2H-pyran-3,4,5-triyl triacetate]	Compound A2,; also recorded: compound (2)	Compound A2,; also recorded: Compound (4)	–	–	–
CCCN1CCC[C@@H]2Cc3c(ccc(OCc4ccccc4)c3O[C@@H]3O[C@H](C(=O)OCc4ccccc4)[C@@H](OC(=O)C(C)(C)C)[C@H](OC(=O)C(C)(C)C)[C@H]3OC(=O)C(C)(C)C)C[C@H]21 [Compound (5), (2S,3R,4S,5S,6S)-2-(((4aR,10aR)-7-(benzyloxy)-1-propyl-1,2,3,4,4a,5,10,10a-octahydrobenzo[g]quinolin-6-yl)oxy)-6-((benzyloxy)carbonyl)tetrahydro-2H-pyran-3,4,5-triyl tris(2,2-dimethylpropanoate)]	Compound (24)	Compound (24)	–	–	–
CCCN1CCC[C@@H]2Cc3c(ccc(OCc4ccccc4)c3O[C@@H]3O[C@H](C(=O)OCC)[C@@H](OC(C)=O)[C@H](OC(C)=O)[C@H]3OC(C)=O)C[C@H]21 [Compound (10), (2S,3R,4S,5S,6S)-2-(((4aR,10aR)-7-(benzyloxy)-1-propyl-1,2,3,4,4a,5,10,10a-octahydrobenzo[g]quinolin-6-yl)oxy)-6-(ethoxycarbonyl)tetrahydro-2H-pyran-3,4,5-triyl triacetate]	Compound A2,; also recorded: Compound (4)	Compound A2,; also recorded: Compound (4)	–	–	–
CCCN1CCC[C@@H]2Cc3c(ccc(OCc4ccccc4)c3O[C@@H]3O[C@H](C(=O)OCC)[C@@H](OC(=O)C(C)(C)C)[C@H](OC(=O)C(C)(C)C)[C@H]3OC(=O)C(C)(C)C)C[C@H]21 [Compound (13), (2S,3R,4S,5S,6S)-2-(((4aR,10aR)-7-(benzyloxy)-1-propyl-1,2,3,4,4a,5,10,10a-octahydrobenzo[g]quinolin-6-yl)oxy)-6-(ethoxycarbonyl)tetrahydro-2H-pyran-3,4,5-triyl tris(2,2-dimethylpropanoate)]	–	Compound (14)	–	–	–
CCCN1CCC[C@@H]2Cc3c(ccc(OC)c3O[C@@H]3O[C@H](C(=O)OCc4ccccc4)[C@@H](OC(=O)C(C)(C)C)[C@H](OC(=O)C(C)(C)C)[C@H]3OC(=O)C(C)(C)C)C[C@H]21 [Compound (20), (2S,3S,4S,5R,6S)-2-((benzyloxy)carbonyl)-6-(((4aR,10aR)-7-methoxy-1-propyl-1,2,3,4,4a,5,10,10a-octahydrobenzo[g]quinolin-6-yl)oxy)tetrahydro-2H-pyran-3,4,5-triyltris(2,2-dimethylpropanoate)]	Compound (21)	Compound (21)	–	–	–
CCCN1CCC[C@@H]2Cc3c(ccc(OC)c3O[C@@H]3O[C@H](C(=O)OC)[C@@H](OC(=O)C(C)(C)C)[C@H](OC(=O)C(C)(C)C)[C@H]3OC(=O)C(C)(C)C)C[C@H]21 [Compound (22), (2S,3S,4S,5R,6S)-2-((methoxy)carbonyl)-6-(((4aR,10aR)-7-methoxy-1-propyl-1,2,3,4,4a,5,10,10a-octahydrobenzo[g]quinolin-6-yl)oxy)tetrahydro-2H-pyran-3,4,5-triyl tris(2,2-dimethylpropanoate)]	Compound (21)	Compound (21)	–	–	–
CCCN1CCC[C@@H]2Cc3c(ccc(OCc4ccccc4)c3O[C@@H]3O[C@H](C(=O)OC)[C@@H](OC(=O)C(C)(C)C)[C@H](OC(=O)C(C)(C)C)[C@H]3OC(=O)C(C)(C)C)C[C@H]21 [Compound (25), (2S,3R,4S,5S,6S)-2-(((4aR,10aR)-7-(benzyloxy)-1-propyl-1,2,3,4,4a,5,10,10a-octahydrobenzo[g]quinolin-6-yl)oxy)-6-(methoxycarbonyl)tetrahydro-2H-pyran-3,4,5-triyl tris(2,2-dimethylpropanoate)]	Compound A2,; also recorded: Compound (24)	Compound A2,; also recorded: Compound (24)	–	–	–
CCCN1CCC[C@@H]2Cc3c(ccc(OC)c3O)C[C@H]21 [Compound A7, (4aR,10aR)-7-methoxy-1-propyl-1,2,3,4,4a,5,10,10a-octahydrobenzo[g]quinolin-6-ol]	–	Compound (I)	Compound (I)	27%	–
CCCN[C@H]1CCc2nc(N)sc2C1 [Pramipexole, pramipexole, reference compound]	–	–	–	–	increase in activity

Reference: patent publication US12384765B2, “Catecholamine prodrugs for use in the treatment of Parkinson's Disease” (H. Lundbeck A/S, priority 2019, dated 2025)
